Experimental data: US10590411B2, “Crude biological derivatives competent for nucleic acid detection” (APPLIED BIOSYSTEMS, LLC, priority 2002, dated 2020)

System: tissue plasminogen activator (t-PA)
Experiment: t-PA mRNA level after PMA treatment, one-step real-time RT-PCR on cell lysate
Assay type: cell-based
Conditions: HeLa cells, 100 and 10 nM PMA, 24 hours, normalized to 18S rRNA
Procedure: FIG. 3. Illustrates an example of measuring the levels of 18S rRNA and tPA mRNA in HeLa cells that were incubated with different concentrations of PMA by one-step, real-time RT-PCR in the ABI 7700. The cells were processed in 96-well plates using the methods of the invention.
Cells were grown overnight in 0.2 ml DME media with 10% FBS with equal number of cells in each well of a 96-well plate. After an overnight incubation, phorbol myristate acetate (PMA) is added to final concentrations of 100, 10, 1, 0.1, and 0 nM in the growth medium in replicates of eight. The cells were incubated at 37° C. for 24 hours. The 96-well plate and lid were placed on the Packard MultiPROBE® II HT Liquid Handling System from PerkinElmer Life Sciences on the proper deck positions. All proceeding steps were entered into the WinPrep for automation. The growth medium was removed and the cells washed with 1×PBS. A volume of 0.1 ml Cell Lysis Buffer is added to each well. The plate was moved to a heating tile, for example, a tile at 75°, and incubated for 10 minutes. […] The plate was shaken for 2 minutes. PMSF can be used when the heating tile cannot heat the sample to 75° C. to inactivate the proteinase K. Two μl DNase I (2 U/μl) was added to each well and the plate was moved to a 37° C. heating tile. The plate was incubated for 15 minutes while shaking. […] The plate was ready for one-step RT-PCR. […]

With `CCCCCCCCCCCCCC(=O)O[C@@H]1[C@@H](C)[C@@]2(O)[C@@H](C=C(CO)C[C@]3(O)C(=O)C(C)=C[C@@H]23)[C@@H]2C(C)(C)[C@]12OC(C)=O` [PMA, phorbol myristate acetate] the “stimulation of t-PA” value was about 29 fold.
